Results as given in patent US9132138B2, “Method for the treatment of multiple sclerosis” (CASI Pharmaceuticals, Inc., priority 2012, dated 2015).

What was measured:
human PBL = test: Proliferation of human PBMC/PBL activated with anti-CD3/28 (3H-thymidine); assay type: cell-based; details: anti-CD3/28 antibodies, 24 or 48 hours
Method: FIGS. 2A-2E, show proliferation and activation of T cells are inhibited by 2ME2. FIG. 2A, CD4^+ T cells were pre-treated with the indicated concentrations of 2ME2 and stimulated with plate-bound anti-CD3/28 or PMA/iono. Proliferation was assayed 24 hours (left) or 48 hours (right) later by 3H-thymidine incorporation. FIG. 2B, CD4^+ and CD8^+ T cells were stimulated with anti-CD3/28 in the presence of increasing concentrations of 2ME2. CD25 expression was assessed at 6 hours or 24 hours post-stimulation by flow cytometry. FIG. 2C, Quantification of CD25 expression in purified CD4^+ T cells pre-treated with increasing concentrations of 2ME2, and stimulated with anti CD3/28 or PMA/iono for 6 or 24 hours. […] Viability was determined 24 hours or 48 hours post-stimulation by flow cytometry. […] Proliferation was determined 24 hours or 48 hours later by 3H-thymidine incorporation. […]
Purified CD4^+ T cells were stimulated with plate-bound anti-CD3 (clone 2C11, BD, 10 ng/ml) plus anti-CD28 (clone 37.51, BD, 100 ng/ml). […] CD25 and CD69 expression was determined by flow cytometry (FACSCanto II, BD) and analyzed using FloJo software (Treestar Inc). Proliferation was assessed by 3H-thymidine incorporation. Viability and upregulation of cell surface markers on activated T cells were assessed by flow cytometry using Annexin V and propridium iodide. […]

T cells = test: Immunoblotting of signaling proteins in whole cell lysates of stimulated T cells; assay type: cell-based, C57/BL6 mice
Method: FIG. 4A, purified T cells pre-treated with 2ME2 (50 μM) were stimulated with PMA/iono for the indicated times. Whole cell lysates were subjected to immunoblotting to detect the indicated proteins. FIG. 4B, nuclear lysates were analyzed by EMSA to detect DNA binding to NF-κB or AP-1. FP, free probe. FIG. 4C, purified T cells or B cells were pre-treated with vehicle (−) or 50 μM 2ME2 (+) and were stimulated with PMA/iono for 30 or 60 minutes (left), or with anti-CD3/28 or anti-IgM/CD40 for 24 hours (right). Nuclear fractions of lymphocytes were analyzed by immunoblotting to detect nuclear translocation of NFATc1. Lamin A, nuclear protein loading control. NS; non-specific band. For FIGS. 4A-4C, data are representative of at least two independent experiments. FIG. 4D, stably transfected NFAT and NF-κB Jurkat luciferase reporter cell lines were preincubated with 2ME2 for 30 minutes, and stimulated via crosslinking of anti-CD3/28 antibodies with goat anti-mouse antibodies (GaM). 5 hours later, secreted luciferase activity indicates relative transcriptional activity. Data is reported as normalized luciferase activity and is representative of 3 independent experiments.
Whole cell lysates of stimulated T cells were immunoblotted with Ab recognizing phospho-protein kinase B (AKT) (Ser473), phospho-JNK (Thr183/Tyr185, p46 and p54 Clone G9, antibody “2”), phospho-ERK (Thr202/Tyr204) or phospho-IκBα (Ser32) (NEB); phospho-JNK (Thr183/Tyr185, p54 pSAPK/JNK, clone G7, antibody “1”) or IκBα(C21) (Santa Cruz); β-tubulin (Millipore) or actin (Sigma). Infrared dye-labeled secondary Ab (anti-rabbit Alexa fluor 680, Invitrogen, and anti-mouse IR800, LICOR) were visualized with the Odyssey® scanner (LICOR).

[1] = T cells activated with anti-CD3/28

`COc1cc2c(cc1O)CC[C@@H]1[C@@H]2CC[C@]2(C)[C@@H](O)CC[C@@H]12` [2ME2, 2-Methoxyestradiol] was tested, and the “proliferation of human PBL” value (human PBL) was “inhibited in a dose-dependent manner”, the AKT phosphorylation (T cells; 2ME2 50 μM, PMA/iono) was “did not inhibit” and the ERK phosphorylation (T cells; 2ME2 50 μM, PMA/iono) was “did not inhibit”. For the same compound, the “IκBα phosphorylation and degradation” value (T cells; 2ME2 50 μM, PMA/iono) was “normal”, the “phosphorylation of JNK 1 and 2” value (T cells; 2ME2 50 μM, present even in the absence of stimulation) was “modest hyper-phosphorylation” and the ERK phosphorylation (T cells; [1]) was “did not inhibit”. For the same compound, the JNK phosphorylation (T cells; [1]) was “did not inhibit” and the “NF-κB p65 phosphorylation” value (T cells; [1]) was “did not inhibit”.
